The record followed here is patent US9682125B2, “Compositions and methods for treating cognitive deficits” (Case Western Reserve University, priority 2011, dated 2017).

No end group written: not given here.

For one assay, the system named is CDK5. Description: Western blotting of hippocampal CDK5. In kind it is in vivo. The following applies: SAMP8 mice treated five weeks, relative to saline-treated group. Here is the method:
(§1) All SAMP8 mice were sacrificed by lethal overdose 5 weeks after the initiation of the pramlintide and saline treatments. The brains were harvested and the hippocampus was dissected and homogenized in protease and phosphatase inhibitor-supplemented 1×RIPA lysis/extraction buffer (Pierce). Total protein was quantified using the BCA Protein Assay Kit (Pierce). 10-20 μg of protein was run in a 10% SDS-PAGE gel and the protein was transferred onto Polyvinylidene fluoride (PVDF) membranes (Millipore). After blocking for one hour in 5% milk, the membranes were incubated overnight at 4° C. in the primary antibody at a 1:1000 dilution, followed by a 1-hour incubation with HRP-conjugated IgG at a 1:10,000 dilution. Primary antibodies used were CDK5 (Millipore), P35/P25 (Millipore), Synapsin I (Santa Cruz), and HO-1 (Gift from Dr. Zhu). The blots were developed using Immobilon Western Chemiluminescent HRP Substrate (Millipore) and imaged using FluorChem M (ProteinSimple). Membranes were stripped using Restore Western Blot Stripping Buffer (Thermo Scientific) for reprobing. Quantifications were performed using ImageJ software.
In general terms: Immunoblotting shows a protein as a band on a membrane.

The next assay concerns cyclooxygenase 2 (COX-2). Description: Cellular stress immunohistochemistry, COX-2. It is filed as in vivo, SAMR1 mice. The note with it: mice treated for 2 weeks, compared to saline-treated mice. On the procedure: (§2) To determine the acute effects of pramilide on potential mechanisms associated with cognitive function a total of 12 control mice (SAMR1) 9 months of age were used to measure the effects of pramlintide on hippocampal neurogenesis. Half of the mice (n=6) were infused by minipump with pramlintide for a total of two weeks, while the other half (n=6) received minipumps filled with saline. For the last seven days of the experiment, all mice received daily intraperitoneal injections of 50 mg/kg BRDU (Sigma, St Louis, […].) dissolved in 0.9% saline and filtered at […]. One day after the last BRDU injection, mice were deeply anesthetized and transcranially perfused using 4% paraformaldehyde in 0.9% saline. The brains were then extracted and post-fixed in 4% paraformaldehyde for 24 hours, after which they were placed in a 30% sucrose solution for three days. All brains were quick-frozen and then cut into 40 μm sagital sections using a cryostatand stored at 4° C. as floating sections.
(§3) To determine whether pramilide had more acute neuroprotective effects in non-pathological conditions, sections from the same mice used for neurogenesis were used to determine markers of cellular stress. […]
(§4) Tissue sections were quantified. […] Six fields across the hippocampus were drawn and % staining within that field was measured using Metamorph software. […]

Assay [1] deals with SAMP8 mice. The assay is described as follows: Object recognition task. It is filed as in vivo. The note with it: 7-month SAMP8 mice. On the procedure:
(§5) All SAMP8 mice were treated with either saline or pramlintide beginning at 6 months of age. A subcutaneous ALZET® osmotic minipump (Model 2002, Durect Corp., Cupertino, Calif., USA) was surgically implanted into all mice as described previously^26. The osmotic mini-pump infused 0.24 mg/kg/day pramlintide acetate (0.6 mg/mL pramlintide, Amylin Pharmaceuticals, Inc., San Diego, Calif.) or saline at a rate of 0.5 μL/hr. Pumps were replaced with new refilled pumps every two weeks throughout the study duration. All animals were weighed weekly throughout the course of the experiment.
A total of 20 SAMP8 mice were used in the object recognition task. […] The mice were allowed to explore the environment for 10 minutes, during which their movements were recorded with a tracking system. […]
Videos recordings of the retention session were scored by an investigator blinded to the treatment groups. Object exploration, defined as the duration of time in which the head of the mouse faced less than ½ cm from the object, was measured during the training and retention sessions. The frequency of object exploration was also recorded, as well as the frequency and time spent rearing and grooming to determine general exploratory behavior. […] The recognition index was calculated as the percent of time spent exploring the novel object versus the total time spent exploring the objects.

A further assay has as its system 4-Hydroxynonenal (HNE). Description: Cellular stress immunohistochemistry, HNE. It is filed as in vivo, SAMR1 mice. The note with it: mice treated for 2 weeks, compared to saline-treated mice. On the procedure: as §2, §3, §4
The next assay relates to synapsin I. The assay is described as follows: Western blotting of hippocampal synapsin I. In kind it is in vivo. The note with it: SAMP8 mice treated five weeks, vs saline. On the procedure: as §1
Another assay deals with p35, p25. The assay is described as follows: Western blotting of hippocampal p35/p25. In kind it is in vivo. The note with it: hippocampus, SAMP8 mice, five weeks, vs saline. Here is the method:
as §1

The next assay relates to HO-1. Description: Western blotting of hippocampal HO-1. The note with it: SAMP8 mice, 5 weeks, compared to saline-treated mice. It is filed as in vivo. On the procedure: as §1
Assay [2] in a line: Body weight change during 5-week pramlintide minipump infusion. The following applies: over 5-week treatment period, 0.24 mg/kg/day s.c. minipump, SAMP8 mice. In kind it is in vivo. On the procedure:
SAMP8 and SAM-resistant 1 (SAMR1) mice were obtained from an established colony at Case Western Reserve University. All animals were group housed, provided ad libitum access to a standard diet and water, and were exposed to a 12/12 light/dark daily cycle. The mice were housed under pathogen-free conditions at a temperature of 21±1.5° C.
as §5
To investigate the effects of pramlintide on memory, SAMP8 mice were continually infused with saline or pramlintide for a total of five weeks. Consistent with pramlintide's known anorexic effect, the pramlintide-treated mice experienced a change in body weight of −5.8% (Std=4.7) over the course of the treatment period as compared to a weight change of −0.1% (6.1) for the saline-treated mice. […]

The test system of assay [3] is BrdU-positive cells in the dentate gyrus. Description: BrdU immunostaining, hippocampal neurogenesis. In kind it is in vivo. The following applies: 9-month SAMR1 mice, two weeks minipump, compared to saline-treated mice. On the procedure:
as §2
BRDU immunohistochemistry was performed as previously described. […]
A validated sterology protocol was used to quantify BrdU-labeled cells in the dentate gyrus. […] All BrdU-positive cells in the dentate gyrus of the hippocampus were counted in every 6th section through the hippocampus, for a total of 12 sections per animal. […]

The test system of assay [4] is SAMP8 mice. The assay is described as follows: Morris water maze (learning, probe and retention trials). In kind it is in vivo. The following applies: chronic amylin; for MWM maze learning: acute leptin at time of testing, FIGS. 10 and 11. The source says:
In this Example, we examined whether chronic amylin administration has beneficial effects on cognition using senescence-accelerated SAMP8 mice, a validated animal model of mild cognitive impairment (MCI)/early Alzheimer's disease (AD) in which the mice experience premature cognitive deficits. Given that the anorectic effects of amylin are specifically synergistic with another metabolic hormone, leptin, we also studied whether amylin's effects on cognition might be enhanced when used in conjunction with leptin.
(§6) To validate the hypothesis that amylin is a cognitive enhancing drug that can be given alone and that may provide benefit for cognitive dysfunction associated diseases such as AD or age-related cognitive dysfunction (normal or Mild cognitive impairment (MCI)), we determined the ability of chronic treatment with amylin to improve cognitive function in the Morris water maze and object recognition tasks in the age accelerated SAMP8 mouse model, a model of MCI/early AD. […] Furthermore, improvement of amylin treatment in the retention trial, carried out 24 hrs reflects the ability of amylin to improve consolidation to long-term, permanent memory. (FIG. 9).
(§7) We were able to test this hypothesis under chronic amylin treatment and acute delivery of leptin at time of testing in SAMP8 mice. […] The slope of curve for the SAMP8 mice treated with a combination of amylin and leptin was the steepest […]. […] Novel object recognition testing, another cognition-based test, supported our findings in the MWM. […] It is important to note that these studies were carried out in cognitively impaired animals with leptin treatments under acute conditions. As such, it is likely that the lack of observable synergistic additive magnitude derives from insufficient length of leptin treatment.

The test system of assay [5] is SAMP8 mice. Description: Novel object recognition testing. It is filed as in vivo. The note with it: chronic amylin, leptin delivered acutely, vs saline, FIG. 13.
Source text: as §6, §7

For `CC[C@H](C)[C@H](NC(=O)[C@@H]1CCCN1C(=O)CNC(=O)[C@H](Cc1ccccc1)NC(=O)[C@H](CC(N)=O)NC(=O)[C@H](CC(N)=O)NC(=O)[C@H](CO)NC(=O)[C@H](CO)NC(=O)[C@H](Cc1c[nH]cn1)NC(=O)[C@@H](NC(=O)[C@H](CC(C)C)NC(=O)[C@H](Cc1ccccc1)NC(=O)[C@H](CC(N)=O)NC(=O)[C@H](C)NC(=O)[C@H](CC(C)C)NC(=O)[C@H](CCCNC(=N)N)NC(=O)[C@H](CCC(N)=O)NC(=O)[C@@H](NC(=O)[C@H](C)NC(=O)[C@@H]1CSSC[C@H](NC(=O)[C@@H](N)CCCCN)C(=O)N[C@@H](CC(N)=O)C(=O)N[C@@H]([C@@H](C)O)C(=O)N[C@@H](C)C(=O)N[C@@H]([C@@H](C)O)C(=O)N1)[C@@H](C)O)C(C)C)C(=O)N[C@@H](CC(C)C)C(=O)N1CCC[C@H]1C(=O)N1CCC[C@H]1C(=O)N[C@H](C(=O)N[C@@H](CC(N)=O)C(=O)N[C@H](C(=O)NCC(=O)N[C@@H](CO)C(=O)N[C@@H](CC(N)=O)C(=O)N[C@H](C(=O)N[C@@H](Cc1ccc(O)cc1)C(N)=O)[C@@H](C)O)C(C)C)[C@@H](C)O` [pramlintide], the “hippocampal expression of the protein CDK5” value in the assay with CDK5 is listed as “significantly increased”. Besides, the “COX-2 immunostaining in the hippocampus” value in the assay with cyclooxygenase 2 (COX-2) is reported as “significant decreases”. Moreover, the recognition index with SAMP8 mice [1] (5 weeks infusion, retention test 3 hours after training, vs saline) was 0.67 (Std=0.06). In the assay with SAMP8 mice [1] (chronic treatment, vs saline-treated controls), the “difference score (recognition memory)” value is recorded as “significantly increased”. Further, the “HNE immunostaining in the hippocampus” value in the assay on 4-Hydroxynonenal (HNE) was “trend toward decreased”. The “hippocampal expression of synapsin I” value in the assay with synapsin I is reported as “significantly increase”. In the assay on p35, p25, the “amount of cleavage product p25” value is listed as “no differences”, the “amount of the CDK5 activator p35” value is listed as “no differences” and the “ratio of p25/p35” value is given as “no differences”. Besides, in the assay with HO-1, the “expression of the protein HO-1 in the hippocampus” value is reported as “significantly decreased”. The “change in body weight” value in assay [2] is given as −5.8%. In assay [3], the “more BrdU-positive cells in the dentate gyrus” value came out at 40%.
With “amylin: 37-amino acid polypeptide hormone normally co-secreted with insulin by pancreatic beta cells (KCNTATCATQRLANFLVHSSNNFGAILSSTNVGSNTY; not fully specified (C-terminus, bridges); cysteine pairing not given here; UniProt P10997 34-70, looked up)”, the “learning of the MWM task” value in the assay with SAMP8 mice [4] (SAMP8 (P8) vs non-treated P8, FIG. 8) was “potent effect on learning”. For the same molecule, the MWM probe trial entry in the assay on SAMP8 mice [4] (SAMP8 vs non-treated P8, FIG. 9) is reported as “perform better than non-treated P8”. Moreover, the MWM maze learning result with SAMP8 mice [4] (SAMP8 mice) is listed as “improved”. Moreover, in the assay on SAMP8 mice [4] (retention carried out 24 hrs, FIG. 9), the MWM retention trial entry was “improvement”.

B1: leptin: metabolic hormone, delivered acutely at time of testing (protein, UniProt P41160 22-167, looked up)
Leptin: VPIQKVQDDTKTLIKTIVTRINDISHTQSVSAKQRVTGLDFIPGLHPILSLSKMDQTLAVYQQVLTSLPSQNVLQIANDLENLRDLLHLLAFSKSCSLPQTSGLQKPESLDGVLEASLYSTEVVALSRLQGSLQDILQQLDVSPEC
As for B1, the MWM maze learning result in the assay with SAMP8 mice [4] (SAMP8 mice) is recorded as “improved”. Moreover, the MWM probe/retention trials entry in the assay on SAMP8 mice [4] (acute leptin, SAMP8 mice, compared to saline, FIG. 12) was “no benefits”. For the same molecule, in the assay on SAMP8 mice [5], the “novel object recognition, discrimination ratio” value is “no benefits”.
